Measurements: patent US8003796B2, “Pyridone GPR119 G protein-coupled receptor agonists” (Bristol-Myers Squibb Company, priority 2007, dated 2011)
Counter-ions that a name gives are not always drawn.

Target: T1, human GPR119 (Homo sapiens, UniProt Q8TDV5)
T1 construct: expressed in transfected cells; host or cells: Flp-In-T-REx 293 (tetracycline-inducible)
T1 sequence (Q8TDV5 1-335): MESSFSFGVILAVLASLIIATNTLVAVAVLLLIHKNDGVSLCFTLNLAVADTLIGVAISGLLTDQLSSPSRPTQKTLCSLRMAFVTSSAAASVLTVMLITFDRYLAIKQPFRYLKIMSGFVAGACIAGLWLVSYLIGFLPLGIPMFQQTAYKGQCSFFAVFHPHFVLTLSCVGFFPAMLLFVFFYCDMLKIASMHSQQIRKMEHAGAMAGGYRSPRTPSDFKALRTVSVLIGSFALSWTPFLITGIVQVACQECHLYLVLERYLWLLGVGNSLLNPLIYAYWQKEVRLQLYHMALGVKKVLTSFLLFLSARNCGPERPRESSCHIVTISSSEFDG
Experiment: Human Tet-inducible cAMP assay
Type: cell-based
Settings: Flp-In-T-REx 293 tetracycline inducible cells expressing GPR119; cAMP by Hit Hunter cAMP kit; 1 hour at 37° C.; read-out: hGPR119 EC50
Procedure: The in vitro modulation of recombinant human GPR119 was determined as follows.
Human Tet-Inducible cAMP Assay
Cell lines expressing GPR119 are generated using the Flp-In-T-REx 293 tetracycline inducible gene expression system are cultured in culture medium comprising the following components: DMEM#11965, 10% FBS, 2 mM L-glutamine, 200 ug/ml Hygromycin B, and 15 ug/ml blasticidin.
For cAMP assays, cells are plated on 96 well plates (e.g., BD Falcon: REF 353948, black side, clear bottom, TC surface) at a density of about 4.5×10^4 cells per well in growth medium containing 1.0 ug/ml tetracycline (1.0 mg/ml stock). The cells are then incubated for 48 hours at 37° C.
Following the incubation, the growth medium is removed from the wells and the wells rinsed (once) with the assay buffer included in the Hit Hunter cAMP kit (100 μl/well). Following the wash, 20 μl of assay buffer is added to each well, followed by addition of 10 μl of a 3× concentration compound working solution. The solution is then mixed. The final concentration range of compound is from about 10^−5M to about 10^−11M. The reagents are then incubated at 37° C. at 5% CO2 for 1 hour.
The manufacturer's protocol may be followed for cAMP determination. The Hit Hunter cAMP kit protocol is outlined for the HIT-T15 cAMP assays described above.
Compounds of the present invention were tested in the Human Tet-inducible cAMP assay described immediately above and the results shown in Table 1 below were obtained.

Row | EC50 | Structure (SMILES)
1 | 3.49 µM | COc1cccc(-n2ccc(OC3CCN(C(=O)OC(C)C)CC3)cc2=O)c1 [Example 12, isopropyl 4-(1-(3-methoxyphenyl)-2-oxo-1,2-dihydropyridin-4-yloxy)piperidine-1-carboxylate]
2 | 0.314 µM | CS(=O)(=O)c1ccc(-n2ccc(OC3CCN(c4nc5ccccc5o4)CC3)cc2=O)cc1 [Example 51, 4-(1-(benzo[d]oxazol-2-yl)piperidin-4-yloxy)-1-(4-(methylsulfonyl)phenyl)pyridin-2(1H)-one]
3 | 0.275 µM | CS(=O)(=O)c1ccc(-n2ccc(OC3CCN(C(=O)CCc4ccccc4)CC3)cc2=O)cc1 [Example 74, 1-(4-(methylsulfonyl)phenyl)-4-(1-(3-phenylpropanoyl)piperidin-4-yloxy)pyridin-2(1H)-one]
4 | 0.303 µM | CS(=O)(=O)c1ccc(-n2ccc(OC3CCN(C(=O)c4cnc5ccccc5n4)CC3)cc2=O)cc1 [Example 78, 1-(4-(methylsulfonyl)phenyl)-4-(1-(quinoxaline-2-carbonyl)piperidin-4-yloxy)pyridin-2(1H)-one]
5 | 4.03 µM | CS(=O)(=O)c1ccc(-n2ccc(OC3CCN(S(=O)(=O)CC(F)(F)F)CC3)cc2=O)cc1 [Example 82, 1-(4-(methylsulfonyl)phenyl)-4-(1-(2,2,2-trifluoroethylsulfonyl)piperidin-4-yloxy)pyridin-2(1H)-one]
6 | 4.34 µM | CS(=O)(=O)c1ccc(-n2ccc(OC3CCN(S(C)(=O)=O)CC3)cc2=O)cc1 [Example 83, 1-(4-(methylsulfonyl)phenyl)-4-(1-(methylsulfonyl)piperidin-4-yloxy)pyridin-2(1H)-one]
7 | 3.27 µM | CS(=O)(=O)c1ccc(-n2ccc(OC3CCN(S(=O)(=O)C4CC4)CC3)cc2=O)cc1 [Example 84, 4-(1-(cyclopropylsulfonyl)piperidin-4-yloxy)-1-(4-(methylsulfonyl)phenyl)pyridin-2(1H)-one]
8 | 3.52 µM | CS(=O)(=O)c1ccc(-n2ccc(OC3CCN(S(=O)(=O)c4ccccn4)CC3)cc2=O)cc1 [Example 86, 1-(4-(methylsulfonyl)phenyl)-4-(1-(pyridin-2-ylsulfonyl)piperidin-4-yloxy)pyridin-2(1H)-one]
9 | 0.304 µM | CCCOC(=O)N1CCC(Oc2ccn(-c3ccc(S(C)(=O)=O)cc3)c(=O)c2)CC1 [Example 91, propyl 4-(1-(4-(methylsulfonyl)phenyl)-2-oxo-1,2-dihydropyridin-4-yloxy)piperidine-1-carboxylate]
10 | 0.261 µM | Cc1cnc(N2CCC(Oc3ccn(-c4ccc(S(C)(=O)=O)cc4)c(=O)c3)CC2)nc1 [Example 108, 4-(1-(5-methylpyrimidin-2-yl)piperidin-4-yloxy)-1-(4-(methylsulfonyl)phenyl)pyridin-2(1H)-one]
11 | 0.293 µM | CCOc1ccc(OC(=O)N2CCC(Oc3ccn(-c4ccc(S(C)(=O)=O)cc4)c(=O)c3)CC2)cc1 [Example 125, 4-ethoxyphenyl 4-(1-(4-(methylsulfonyl)phenyl)-2-oxo-1,2-dihydropyridin-4-yloxy)piperidine-1-carboxylate]
12 | 0.25 µM | CCc1cnc(N2CCC(Oc3ccn(-c4cccnc4)c(=O)c3)CC2)nc1 [Example 133, 4-(1-(5-ethylpyrimidin-2-yl)piperidin-4-yloxy)-1-(pyridin-3-yl)pyridin-2(1H)-one]
13 | 0.274 µM | Cc1cc(Br)ccc1OC(=O)N1CCC(Oc2ccn(-c3ccc(S(C)(=O)=O)cc3)c(=O)c2)CC1 [Example 143, 4-bromo-2-methylphenyl 4-(1-(4-(methylsulfonyl)phenyl)-2-oxo-1,2-dihydropyridin-4-yloxy)piperidine-1-carboxylate]
14 | 5 µM | Cc1cc(OC2CCN(c3ncc(C4CC4)cn3)CC2)cc(=O)n1-c1ccc(S(C)(=O)=O)cc1 [Example 162, 4-(1-(5-cyclopropylpyrimidin-2-yl)piperidin-4-yloxy)-6-methyl-1-(4-(methylsulfonyl)phenyl)pyridin-2(1H)-one]
15 | 5 µM | CCCc1cnc(N2CCC(Oc3cc(C)n(-c4ccc(S(C)(=O)=O)cc4)c(=O)c3)CC2)nc1 [Example 165, 6-methyl-1-(4-(methylsulfonyl)phenyl)-4-(1-(5-propylpyrimidin-2-yl)piperidin-4-yloxy)pyridin-2(1H)-one]
16 | 0.008 µM | CCCc1cnc(N2CCC(Oc3ccn(-c4ccc(S(C)(=O)=O)c(F)c4)c(=O)c3)CC2)nc1 [Example 175, 1-(3-fluoro-4-(methylsulfonyl)phenyl)-4-(1-(5-propylpyrimidin-2-yl)piperidin-4-yloxy)pyridin-2(1H)-one]
17 | 0.008 µM | CCCc1cnc(N2CCC(Oc3ccn(-c4ccc(C#N)cc4F)c(=O)c3)CC2)nc1 [Example 177, 3-fluoro-4-(2-oxo-4-(1-(5-propylpyrimidin-2-yl)piperidin-4-yloxy)pyridin-1(2H)-yl)benzonitrile, TFA salt]
18 | 0.265 µM | CCCc1cnc(N2CCC(Oc3ccn(-c4ccc(S(C)(=O)=O)cc4C)c(=O)c3)CC2)nc1 [Example 178, 1-(2-methyl-4-(methylsulfonyl)phenyl)-4-(1-(5-propylpyrimidin-2-yl)piperidin-4-yloxy)pyridin-2(1H)-one]
19 | 0.276 µM | CCCc1cnc(N2CCC(Oc3ccn(-c4ccc(C(N)=O)cc4F)c(=O)c3)CC2)nc1 [Example 179, 3-fluoro-4-(2-oxo-4-(1-(5-propylpyrimidin-2-yl)piperidin-4-yloxy)pyridin-1(2H)-yl)benzamide, TFA salt]
20 | 7.14 µM | CC(C)OC(=O)N1CCC(Oc2ccn(-c3ccc(S(C)(=O)=O)nc3)c(=O)c2)CC1 [Example 189, isopropyl 4-(1-(6-(methylsulfonyl)pyridin-3-yl)-2-oxo-1,2-dihydropyridin-4-yloxy)piperidine-1-carboxylate]
21 | 5.09 µM | CC(C)OC(=O)N1CCC(Oc2ccn(-c3cncnc3)c(=O)c2)CC1 [Example 191, isopropyl 4-(2-oxo-1-(pyrimidin-5-yl)-1,2-dihydropyridin-4-yloxy)piperidine-1-carboxylate]
22 | 0.241 µM | CCCc1cnc(N2CCC(Oc3ccn(-c4cncnc4)c(=O)c3)CC2)nc1 [Example 192, 4-(1-(5-propylpyrimidin-2-yl)piperidin-4-yloxy)-1-(pyrimidin-5-yl)pyridin-2(1H)-one]
23 | 0.005 µM | CCCc1cnc(N2CCC(Oc3cc(=O)n(-c4ccc(S(C)(=O)=O)cc4)cc3Cl)CC2)nc1 [Example 194, 5-chloro-1-(4-(methylsulfonyl)phenyl)-4-(1-(5-propylpyrimidin-2-yl)piperidin-4-yloxy)pyridin-2(1H)-one, TFA salt]
24 | 0.293 µM | CCCc1cnc(N2CCC(Oc3ccn(-c4ccc(S(C)(=O)=O)nc4C)c(=O)c3)CC2)nc1 [Example 206, 1-(2-methyl-6-(methylsulfonyl)pyridin-3-yl)-4-(1-(5-propylpyrimidin-2-yl)piperidin-4-yloxy)pyridin-2(1H)-one, TFA salt]
25 | 7.07 µM | Cc1nc(S(C)(=O)=O)ccc1-n1ccc(OC2CCN(C(=O)OC(C)C)CC2)cc1=O [Example 207, isopropyl 4-(1-(2-methyl-6-(methylsulfonyl)pyridin-3-yl)-2-oxo-1,2-dihydropyridin-4-yloxy)piperidine-1-carboxylate, TFA salt]
26 | 3.39 µM | CC(C)OC(=O)N1CCC(Oc2ccn(-c3ccc(NC(=O)C(C)C)cc3)c(=O)c2)CC1 [Example 209, isopropyl 4-(1-(4-isobutyramidophenyl)-2-oxo-1,2-dihydropyridin-4-yloxy)piperidine-1-carboxylate]

Row | Structure (SMILES) | EC50
27 | CC(C)OC(=O)N1[C@@H]2CC[C@@H]1CC(Oc1ccn(-c3ccc(S(C)(=O)=O)cc3)c(=O)c1)C2 (stereo partly drawn) [Example 27, (3-endo)-isopropyl 3-(1-(4-(methylsulfonyl)phenyl)-2-oxo-1,2-dihydropyridin-4-yloxy)-8-azabicyclo[3.2.1]octane-8-carboxylate] | 3.5 µM
28 | CCCc1ccc(OC(=O)N2CCC(Oc3ccn(-c4ccc(S(C)(=O)=O)cc4)c(=O)c3)CC2)cn1 [Example 153, 6-propylpyridin-3-yl 4-(1-(4-(methylsulfonyl)phenyl)-2-oxo-1,2-dihydropyridin-4-yloxy)piperidine-1-carboxylate, TFA salt] | 0.273 µM
29 | CCCc1cnc(N2CCC(Oc3ccn(-c4ccc(C#N)c(F)c4)c(=O)c3)CC2)nc1 [Example 199, 2-fluoro-4-(2-oxo-4-(1-(5-propylpyrimidin-2-yl)piperidin-4-yloxy)pyridin-1(2H)-yl)benzonitrile] | 0.007 µM
